Patent publication US20220062218A1, “COMPOSITIONS AND METHODS FOR TREATING DIABETES” (ENZYCHEM LIFESCIENCES, priority 2019, published 2022)
Entries after “also recorded” stand apart in the source; their conditions may differ.

Columns and labels:
INS-1 cells [1] = experiment: High glucose (HG)-induced intracellular ROS generation in INS-1 cells, flow cytometry with DCFH-DA; type: cell-based, rat; details: pre-treated with 50 or 100 μg/mL of PLAG for 1 h, then 30 mM HG for 48 h
Protocol: Intracellular ROS generation also analyzed by flow cytometry using DCFH-DA dye. ROS generation was determined by analyzing changes in fluorescence intensity. INS-1 cells were pre-treated with 50 or 100 μg/mL of PLAG for 1 h, and then treated with 30 mM of HG for 48h. […] PLAG promotes GLUT2 endocytosis in HG-treated INS-1 cells (FIG. 10)
(§1) INS-1 rat insulinoma pancreas beta cells were cultured in RPMI-1640 medium (Welgene, Gyeongsangbuk-do, Republic of Korea) containing 10% fetal bovine serum (Tissue Culture Biologicals, Long Beach, Calif., USA), 50 μM β-mercaptoethanol, 100 units/mL penicillin, and 100 μg/mL streptomycin (Antibiotic-Antimycotic Solution, Welgene). The cells were grown in a humidified atmosphere with 5% CO2 at 37° C. Chemicals and reagents
Cells were collected by trypsinization and washed with ice-cold PBS. For cell apoptosis analyses, INS-1 cells were incubated with annexin V (BD Biosciences, Franklin Lakes, N.J., USA) for 10 min at room temperature, and stained with 7-AAD (BD Biosciences). For intracellular reactive oxygen species (ROS) analyses, cells were incubated with 2 μM of DCFH-DA (2′,7′-dichlorodihydrofluorescein diacetate, Invitrogen, Carlsbad, Calif., USA) for 30 min at 37° C. The analysis was performed using a BD FACS Verse flow cytometer (BD Biosciences).

[2] = system: Streptozotocin (STZ)-induced diabetes model; experiment: Streptozotocin (STZ)-induced diabetes model in mice: blood glucose, serum insulin, body weight, pancreas histopathology; type: in vivo
Protocol: In order to confirm the efficacy of 1-palmitoyl-2-linoleoyl-3- acetyl-racglycerol (EC-18 or PLAG) in the treatment of diabetes disease, Streptozotocin (STZ)-induced diabetes model were used in the experiments.
Mice were divided into four groups (control group, STZ-only treatment group, PLAG-co-treatment group, and PLAG-post-treatment group). After a 16-h fast, the three treated groups except the control group were injected intraperitoneally with STZ (200 mg/kg BW) prepared fresh in citrate buffer, wherein BW means body weight. STZ-only treatment mice received no additional treatment.
On the same day, PLAG-co-treatment group mice began treatment with PLAG (250 mg/kg, p.o.) once daily for 3 consecutive days. The PLAG-post-treatment group received PLAG (250 mg/kg, p.o.) for 2 consecutive days beginning 1 day after STZ injection. As the PLAG, 1-palmitoyl-2-linoleoyl-3-acetyl-rac-glycerol represented by Formula 2 was used.
Blood was collected via the retro-orbital plexus, and blood glucose levels were monitored during the experiment. Blood glucose was measured using the Accu-Chek glucometer (Roche, Seoul, Republic of Korea). FIG. 1A is a chart measuring the blood glucose of the control group and the experimental groups on the first day.
All mice were sacrificed on day 4, last day of experiment (day 4), serum insulin was measured (FIG. 1B). Tissues of the pancreatic tissue of the control group and the experimental group were collected and fixed in 10% formalin for further analysis. During the experiment, the weight change of the control group and the experimental groups was measured (FIG. 1C).
Pancreas tissues were fixed in 10% formalin, embedded in paraffin, and sectioned at a 4 μm thickness. For immunohistochemistry, sections were deparaffinized and […] using xylene and a graded ethanol series Staining was performed using the Real EnVision Detection System Peroxidase-DAB kit (Dako, Glostrup, Denmark) following the manufacturer's instructions, and then observed under a light microscope (Olympus, Tokyo, Japan) (FIG. 1D, 400 magnification).

INS-1 cells [3] = experiment: Glucose uptake assay with 2-NBDG in INS-1 cells (flow cytometry, immunofluorescence); type: cell-based, rat
Protocol: 2-[N-(7-nitrobenz-2-oxa-1,3-diazol-4-yl)amino]-2-deoxy-D-glucose (2-NBDG, N13195, Thermo Scientific) was used for glucose uptake assays. Glucose uptake assays were performed using 2-NBDG conjugated with fluorescent dye. Intracellular 2-NBDG was measured at 60 min (FIG. 5A) and successively calculated from 5 min to 480 min after 2-NBDG treatment by How cytometry (FIG. 5B). Serum-containing complete medium was removed, and INS-1 cells were washed in PBS. The cells were cultured in glucose-free culture media for 1 h at 37° C. and then treated with 2-NBDG. Intracellular fluorescence was measured using a BD FACS Verse flow cytometer (BD Biosciences).
Intracellular 2-NBDG expression were also observed using immunofluorescence assay (FIG.5-C). Data are presented as mean ±SD. *P<0.05, **P<0.005, ***P<0.001 vs. control, #P<0.05, ##P<0.005 vs. STZ.
After treatment with PLAG and PLH(1-palmitoyl-2-linoleoyl-3-hydroxyl-rac-glycerol), apoptosis, intracellular ROS generation and glucose uptake were analyzed by flow cytometry (FIG. 7-B to 7-E). In addition, expression of GLUT2 in membrane fractions was analyzed by Western blotting (FIG.7-F). Data are presented as mean ±SD. ***P<0.001 vs. control, #P<0.05, ##P<0.005 vs. STZ. N.S.: No significance.

INS-1 cells [4] = experiment: High glucose (HG)-induced cell apoptosis in INS-1 cells, flow cytometry; type: cell-based, rat; details: pre-treated with 50 or 100 μg/mL of PLAG for 1 h, then 30 mM HG for 48 h
Protocol: Effect of PLAG on pancreatic beta cell protection was investigated after HG-treatment. HG-induced cell apoptosis was analyzed using flow cytometry. INS-1 cells were pre-treated with 50 or 100 μg/mL of PLAG for lh, and then treated with 30 mM of HG for 48h. When INS-1 cells were maintained in a high glucose conditions, there was a significant increase in cell apoptosis compared to control cells.
as §1
PLAG was obtained from Enzychem Lifesciences (Seoul, Republic of Korea). D-glucose was purchased from Sigma-Aldrich (St. Louis, Mo., USA). PLAG was dissolved in ethanol and the final working concentration was 0.1% (v/v). D-glucose was dissolved in cell culture medium.
Cells were collected by trypsinization and washed with ice-cold PBS. For cell apoptosis analyses, INS-1 cells were incubated with annexin V (BD Biosciences, Franklin Lakes, N.J., USA) for 10 min at room temperature, and stained with 7-AAD (BD Biosciences). […]

CCCCC/C=C\C/C=C\CCCCCCCC(=O)OC(COC(C)=O)COC(=O)CCCCCCCCCCCCCCC (racemic) [PLAG, 1-palmitoyl-2-linoleoyl-3-acetyl-rac-glycerol]
HG-induced intracellular ROS generation (INS-1 cells [1]): dose-dependently decreased | serum insulin (insulin secretion) ([2]; day 4, STZ-only group compared with control and PLAG groups (250 mg/kg p.o.)): Insulin secretion of the STZ-only treatment group is significantly lower than the control and other experimental groups | body weight change ([2]; during the experiment, STZ-only group compared with control and PLAG groups (250 mg/kg p.o.)): STZ-only treatment group has a greater weight change than the control and other experimental groups | blood glucose ([2]; first day, PLAG-co-treatment group, 250 mg/kg p.o. once daily, STZ 200 mg/kg i.p., vs control group): did not have a significant increase in blood glucose | glucose uptake (2-NBDG time course) (INS-1 cells [3]; 5 min to 480 min after 2-NBDG treatment, flow cytometry, vs 2-NBDG alone): glucose uptake was attenuated | glucose uptake (2-NBDG), PLAG vs PLH (INS-1 cells [3]; Example 8, flow cytometry): 2-NBDG was slowly absorbed | intracellular 2-NBDG fluorescence intensity (INS-1 cells [3]; at 60 min, flow cytometry): lower fluorescence intensity | intracellular 2-NBDG (immunofluorescence) (INS-1 cells [3]; time course vs 2-NBDG-only treated group): increased more slowly | HG-induced cell apoptosis (INS-1 cells [4]): a decreased rate of apoptosis was observed; also recorded: dose-dependently decreased
